Assay results from patent US12522583B2, “Benzimidazole derivatives and aza-benzimidazole derivatives as Janus kinase 2 inhibitors and uses thereof” (Dana-Farber Cancer Institute, Inc., priority 2018, dated 2026).

Tests used:
Test in all cases: KINOMEscan
Type in all cases: binding
Details in all cases: read-out: percent control
[1] = target: SNRK (Homo sapiens (Human), UniProt Q9NRH2)
Text: (§1) Example 2. In Vitro Kinase Selectivity Profiling of the Compounds of the Present Disclosure

[2] = target: MARK3 (Homo sapiens (Human), UniProt P27448)
Text: as §1

[3] = target: IKK-beta (Homo sapiens (Human), UniProt O14920)
Text: as §1

[4] = target: LZK (Homo sapiens (Human), UniProt O43283)
Text: as §1

[5] = target: CDC2L1 (Homo sapiens (Human), UniProt P21127)
Text: as §1

[6] = target: WNK2 (Homo sapiens (Human), UniProt Q9Y3S1)
Text: as §1

[7] = target: MUSK (Homo sapiens (Human), UniProt O15146)
Text: as §1

[8] = target: RPS6KA5(Kin.Dom.1-terminal) (Homo sapiens (Human), UniProt O75582)
Text: as §1

[9] = target: PIK3CA(C420R) (Homo sapiens (Human), UniProt P42336, C420R)
Text: as §1

[10] = target: PRKD1 (Homo sapiens (Human), UniProt Q15139)
Text: as §1

[11] = target: SGK3 (Homo sapiens (Human), UniProt Q96BR1)
Text: as §1

[12] = target: RAF1 (Homo sapiens (Human), UniProt P04049)
Text: as §1

[13] = target: TEC (Homo sapiens (Human), UniProt P42680)
Text: as §1

[14] = target: AKT1 (Homo sapiens (Human), UniProt P31749)
Text: as §1

[15] = target: CSNK1G2 (Homo sapiens (Human), UniProt P78368)
Text: as §1

[16] = target: FRK (Homo sapiens (Human), UniProt P42685)
Text: as §1

[17] = target: DLK (Homo sapiens (Human), UniProt Q12852)
Text: as §1

[18] = target: RIPK5 (Homo sapiens (Human), UniProt Q6XUX3)
Text: as §1

[19] = target: CAMKK2 (Homo sapiens (Human), UniProt Q96RR4)
Text: as §1

[20] = target: DDR1 (Homo sapiens (Human), UniProt Q08345)
Text: as §1

[21] = target: JNK1 (Homo sapiens (Human), UniProt P45983)
Text: as §1

[22] = target: CDK3 (Homo sapiens (Human), UniProt Q00526)
Text: as §1

[23] = target: MKNK2 (Homo sapiens (Human), UniProt Q9HBH9)
Text: as §1

[24] = target: ZAP70 (Homo sapiens (Human), UniProt P43403)
Text: as §1

[25] = target: ACVR1B (Homo sapiens (Human), UniProt P36896)
Text: as §1

[26] = target: AXL (Homo sapiens (Human), UniProt P30530)
Text: as §1

[27] = target: RSK1(Kin.Dom.2-C-terminal) (Homo sapiens (Human), UniProt Q15418)
Text: as §1

[28] = target: EGFR(T790M) (Homo sapiens (Human), UniProt P00533, T790M)
Text: as §1

[29] = target: PFTAIRE2 (Homo sapiens (Human), UniProt Q96Q40)
Text: as §1

[30] = target: LRRK2 (Homo sapiens (Human), UniProt Q5S007)
Text: as §1

[31] = target: IGF1R (Homo sapiens (Human), UniProt P08069)
Text: as §1

[32] = target: NIK (Homo sapiens (Human), UniProt Q99558)
Text: as §1

[33] = target: TAOK2 (Homo sapiens (Human), UniProt Q9UL54)
Text: as §1

[34] = target: CSNK1G1 (Homo sapiens (Human), UniProt Q9HCP0)
Text: as §1

[35] = target: LOK (Homo sapiens (Human), UniProt O94804)
Text: as §1

[36] = target: PRKG1 (Homo sapiens (Human), UniProt Q13976)
Text: as §1

[37] = target: EIF2AK1 (Homo sapiens (Human), UniProt Q9BQI3)
Text: as §1

[38] = target: FGFR2 (Homo sapiens (Human), UniProt P21802)
Text: as §1

[39] = target: EGFR(L747-E749del, A750P) (Homo sapiens (Human), UniProt P00533, A750P/DEL747-749)
Text: as §1

[40] = target: YANK2 (Homo sapiens (Human), UniProt Q9NY57)
Text: as §1

FRK, sequence (P42685 whole entry): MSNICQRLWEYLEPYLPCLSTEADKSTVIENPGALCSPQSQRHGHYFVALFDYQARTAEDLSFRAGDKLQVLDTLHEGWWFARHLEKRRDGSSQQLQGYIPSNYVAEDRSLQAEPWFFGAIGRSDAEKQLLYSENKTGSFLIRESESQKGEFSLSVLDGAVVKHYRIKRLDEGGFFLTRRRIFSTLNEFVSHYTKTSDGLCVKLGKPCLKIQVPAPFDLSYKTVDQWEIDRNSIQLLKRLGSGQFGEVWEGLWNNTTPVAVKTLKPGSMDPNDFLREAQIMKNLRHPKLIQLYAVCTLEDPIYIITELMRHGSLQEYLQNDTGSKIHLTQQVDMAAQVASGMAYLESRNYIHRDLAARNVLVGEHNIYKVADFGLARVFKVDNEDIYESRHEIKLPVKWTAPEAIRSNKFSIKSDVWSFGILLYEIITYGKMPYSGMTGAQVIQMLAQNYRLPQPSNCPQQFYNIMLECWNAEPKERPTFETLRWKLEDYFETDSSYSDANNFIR
RPS6KA5(Kin.Dom.1-terminal), sequence (O75582 49-318 limits assumed): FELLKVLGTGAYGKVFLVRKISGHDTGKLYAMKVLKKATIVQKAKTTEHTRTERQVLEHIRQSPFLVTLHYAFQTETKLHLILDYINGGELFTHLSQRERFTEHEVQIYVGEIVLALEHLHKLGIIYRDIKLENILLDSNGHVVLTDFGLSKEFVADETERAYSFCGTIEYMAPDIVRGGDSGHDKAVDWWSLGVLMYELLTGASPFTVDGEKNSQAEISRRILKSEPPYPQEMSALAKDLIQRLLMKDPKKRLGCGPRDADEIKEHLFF
DLK, sequence (Q12852 whole entry): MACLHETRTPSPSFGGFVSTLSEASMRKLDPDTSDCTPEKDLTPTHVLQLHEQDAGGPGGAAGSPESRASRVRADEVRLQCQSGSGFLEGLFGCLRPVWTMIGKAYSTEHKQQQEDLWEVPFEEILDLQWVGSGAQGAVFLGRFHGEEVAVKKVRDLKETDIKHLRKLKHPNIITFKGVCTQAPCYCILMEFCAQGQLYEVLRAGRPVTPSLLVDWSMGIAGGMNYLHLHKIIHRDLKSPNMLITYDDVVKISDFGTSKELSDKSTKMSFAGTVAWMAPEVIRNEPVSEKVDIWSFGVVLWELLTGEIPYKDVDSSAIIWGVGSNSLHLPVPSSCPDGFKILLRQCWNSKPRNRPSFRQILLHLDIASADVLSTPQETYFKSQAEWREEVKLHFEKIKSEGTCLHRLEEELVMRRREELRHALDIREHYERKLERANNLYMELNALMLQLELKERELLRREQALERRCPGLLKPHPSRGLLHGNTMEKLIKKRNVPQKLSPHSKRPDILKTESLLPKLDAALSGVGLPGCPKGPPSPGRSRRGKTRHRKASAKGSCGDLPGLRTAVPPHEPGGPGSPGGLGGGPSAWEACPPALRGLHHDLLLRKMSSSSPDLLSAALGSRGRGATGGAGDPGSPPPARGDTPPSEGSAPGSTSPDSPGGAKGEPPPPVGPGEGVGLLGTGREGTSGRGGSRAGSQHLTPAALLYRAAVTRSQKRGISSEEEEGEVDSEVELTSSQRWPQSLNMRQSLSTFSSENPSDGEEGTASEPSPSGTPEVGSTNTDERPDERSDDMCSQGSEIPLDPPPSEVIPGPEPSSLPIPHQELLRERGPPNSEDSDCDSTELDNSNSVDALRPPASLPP
RIPK5, sequence (Q6XUX3 whole entry): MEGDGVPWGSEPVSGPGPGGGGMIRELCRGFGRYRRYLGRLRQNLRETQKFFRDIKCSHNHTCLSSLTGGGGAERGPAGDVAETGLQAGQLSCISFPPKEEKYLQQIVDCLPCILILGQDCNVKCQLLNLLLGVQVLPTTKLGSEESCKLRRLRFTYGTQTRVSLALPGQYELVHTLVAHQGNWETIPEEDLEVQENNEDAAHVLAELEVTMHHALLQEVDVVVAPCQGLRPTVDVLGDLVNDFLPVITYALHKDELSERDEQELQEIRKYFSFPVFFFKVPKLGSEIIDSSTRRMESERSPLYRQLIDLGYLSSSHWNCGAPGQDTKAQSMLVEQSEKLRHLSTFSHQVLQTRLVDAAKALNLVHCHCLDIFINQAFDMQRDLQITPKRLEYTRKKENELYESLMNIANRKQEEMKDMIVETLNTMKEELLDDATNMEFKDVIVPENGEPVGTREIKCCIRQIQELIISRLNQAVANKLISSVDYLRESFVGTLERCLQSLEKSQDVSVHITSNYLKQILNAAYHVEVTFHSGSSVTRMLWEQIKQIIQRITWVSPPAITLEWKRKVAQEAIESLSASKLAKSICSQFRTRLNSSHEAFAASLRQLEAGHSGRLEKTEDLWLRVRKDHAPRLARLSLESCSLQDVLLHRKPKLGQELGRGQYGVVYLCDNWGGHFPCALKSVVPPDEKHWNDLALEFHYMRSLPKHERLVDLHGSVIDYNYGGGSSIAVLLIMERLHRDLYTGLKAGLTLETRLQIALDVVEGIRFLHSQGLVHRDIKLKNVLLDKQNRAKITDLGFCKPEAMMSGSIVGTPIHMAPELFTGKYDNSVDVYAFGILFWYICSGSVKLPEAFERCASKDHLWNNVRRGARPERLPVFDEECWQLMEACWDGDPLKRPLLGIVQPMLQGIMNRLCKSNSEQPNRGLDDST
SGK3, sequence (Q96BR1 whole entry): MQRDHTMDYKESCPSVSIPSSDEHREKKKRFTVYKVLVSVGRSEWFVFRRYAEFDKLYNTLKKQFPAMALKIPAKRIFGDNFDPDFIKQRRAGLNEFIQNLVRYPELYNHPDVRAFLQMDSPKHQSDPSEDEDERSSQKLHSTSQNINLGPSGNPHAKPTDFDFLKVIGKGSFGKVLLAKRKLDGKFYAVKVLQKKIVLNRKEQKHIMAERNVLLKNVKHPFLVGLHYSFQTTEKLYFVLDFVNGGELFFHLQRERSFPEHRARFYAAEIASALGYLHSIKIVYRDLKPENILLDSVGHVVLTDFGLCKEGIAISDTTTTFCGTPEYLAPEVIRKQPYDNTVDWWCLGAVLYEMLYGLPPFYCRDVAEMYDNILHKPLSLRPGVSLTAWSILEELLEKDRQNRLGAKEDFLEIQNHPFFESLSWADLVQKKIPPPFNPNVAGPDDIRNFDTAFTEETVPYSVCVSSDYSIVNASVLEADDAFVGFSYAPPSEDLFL
IKK-beta, sequence (O14920 whole entry): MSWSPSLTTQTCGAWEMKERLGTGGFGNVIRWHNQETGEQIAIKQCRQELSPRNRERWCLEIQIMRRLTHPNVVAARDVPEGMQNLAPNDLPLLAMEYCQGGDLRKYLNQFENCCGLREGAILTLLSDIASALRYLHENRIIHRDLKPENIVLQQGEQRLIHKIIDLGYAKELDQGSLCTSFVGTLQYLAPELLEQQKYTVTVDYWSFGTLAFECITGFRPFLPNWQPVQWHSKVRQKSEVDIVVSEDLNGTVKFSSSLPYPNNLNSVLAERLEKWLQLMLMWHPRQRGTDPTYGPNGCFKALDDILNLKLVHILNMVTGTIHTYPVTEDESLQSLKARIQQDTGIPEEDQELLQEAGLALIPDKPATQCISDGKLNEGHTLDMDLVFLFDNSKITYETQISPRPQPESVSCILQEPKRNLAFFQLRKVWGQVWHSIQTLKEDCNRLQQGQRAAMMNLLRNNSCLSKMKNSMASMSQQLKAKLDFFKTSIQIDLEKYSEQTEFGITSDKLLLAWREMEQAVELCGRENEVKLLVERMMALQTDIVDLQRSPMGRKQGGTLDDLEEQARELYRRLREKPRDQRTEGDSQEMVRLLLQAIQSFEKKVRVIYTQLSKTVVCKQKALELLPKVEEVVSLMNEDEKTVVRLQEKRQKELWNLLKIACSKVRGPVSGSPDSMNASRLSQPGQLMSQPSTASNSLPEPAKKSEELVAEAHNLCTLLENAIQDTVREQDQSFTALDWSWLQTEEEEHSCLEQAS
TEC, sequence (P42680 whole entry): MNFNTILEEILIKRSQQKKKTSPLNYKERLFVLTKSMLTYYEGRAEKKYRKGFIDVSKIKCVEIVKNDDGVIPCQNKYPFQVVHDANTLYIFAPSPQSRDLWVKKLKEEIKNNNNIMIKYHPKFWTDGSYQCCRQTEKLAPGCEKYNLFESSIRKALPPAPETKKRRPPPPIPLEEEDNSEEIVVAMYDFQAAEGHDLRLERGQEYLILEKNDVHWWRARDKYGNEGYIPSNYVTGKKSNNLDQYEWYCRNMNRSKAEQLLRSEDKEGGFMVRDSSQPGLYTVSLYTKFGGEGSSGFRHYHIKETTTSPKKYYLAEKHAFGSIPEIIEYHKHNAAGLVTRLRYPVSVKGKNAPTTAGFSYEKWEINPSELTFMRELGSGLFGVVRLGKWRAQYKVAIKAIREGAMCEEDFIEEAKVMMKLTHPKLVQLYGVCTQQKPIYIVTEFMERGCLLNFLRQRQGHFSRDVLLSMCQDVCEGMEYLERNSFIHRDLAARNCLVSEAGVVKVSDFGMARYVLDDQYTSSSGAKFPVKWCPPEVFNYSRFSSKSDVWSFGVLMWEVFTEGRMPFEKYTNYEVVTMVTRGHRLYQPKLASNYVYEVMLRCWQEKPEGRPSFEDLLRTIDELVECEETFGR
AKT1, sequence (P31749 whole entry): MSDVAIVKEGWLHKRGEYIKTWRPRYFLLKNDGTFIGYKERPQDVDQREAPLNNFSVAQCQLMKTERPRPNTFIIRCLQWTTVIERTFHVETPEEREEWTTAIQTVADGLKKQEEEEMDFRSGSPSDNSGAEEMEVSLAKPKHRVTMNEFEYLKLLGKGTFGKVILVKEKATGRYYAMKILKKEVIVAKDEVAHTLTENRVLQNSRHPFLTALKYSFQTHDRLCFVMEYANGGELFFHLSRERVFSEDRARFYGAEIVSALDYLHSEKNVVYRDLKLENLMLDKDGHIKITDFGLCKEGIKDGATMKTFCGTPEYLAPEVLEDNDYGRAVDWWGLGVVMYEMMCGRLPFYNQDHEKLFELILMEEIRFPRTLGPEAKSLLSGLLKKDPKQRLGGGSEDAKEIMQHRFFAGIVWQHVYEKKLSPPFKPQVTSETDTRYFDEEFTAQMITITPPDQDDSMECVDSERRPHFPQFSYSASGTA

Structure (SMILES) | remaining binding at 1 µM [1] [%] | remaining binding at 1 µM [2] [%] | remaining binding at 1 µM [3] [%] | remaining binding at 1 µM [4] [%] | remaining binding at 1 µM [5] [%] | remaining binding at 1 µM [6] [%] | remaining binding at 1 µM [7] [%] | remaining binding at 1 µM [8] [%] | remaining binding at 1 µM [9] [%] | remaining binding at 1 µM [10] [%] | remaining binding at 1 µM [11] [%] | remaining binding at 1 µM [12] [%] | remaining binding at 1 µM [13] [%] | remaining binding at 1 µM [14] [%] | remaining binding at 1 µM [15] [%] | remaining binding at 1 µM [16] [%] | remaining binding at 1 µM [17] [%] | remaining binding at 1 µM [18] [%] | remaining binding at 1 µM [19] [%] | remaining binding at 1 µM [20] [%] | further results
CCN1CCN(Cc2ccc(Nc3nc4ccc(Oc5ccnc(NC(C)=O)c5)cc4n3C)cc2C(F)(F)F)CC1 [Compound I-2] | 100 | 87 | 98 | 100 | 0.1 | 98 | 100 | 96 | 100 | 99 | 93 | 14 | 78 | 94 | 100 | 45 | 100 | 69 | 100 | 0.05 | remaining binding at 1 µM [21]: 79%; remaining binding at 1 µM [22]: 100%; remaining binding at 1 µM [23]: 82%; remaining binding at 1 µM [24]: 100%; remaining binding at 1 µM [25]: 100%; remaining binding at 1 µM [26]: 86%; remaining binding at 1 µM [27]: 93%; remaining binding at 1 µM [28]: 96%; remaining binding at 1 µM [29]: 75%; remaining binding at 1 µM [30]: 100%; remaining binding at 1 µM [31]: 59%; remaining binding at 1 µM [32]: 100%; remaining binding at 1 µM [33]: 0.25%; remaining binding at 1 µM [34]: 100%; remaining binding at 1 µM [35]: 21%; remaining binding at 1 µM [36]: 100%; remaining binding at 1 µM [37]: 75%; remaining binding at 1 µM [38]: 100%; remaining binding at 1 µM [39]: 66%; remaining binding at 1 µM [40]: 100%
CCN1CCN(Cc2ccc(Nc3nc4ccc(Oc5ccnc(NC(C)=O)c5)c(C)c4n3C)cc2C(F)(F)F)CC1 [Compound I-6, N-(4-(2-(4-((4-ethylpiperazin-1-yl)methyl)-3-(trifluoromethyl)phenylamino)-1,7-dimethyl-1H-benzo[d]imidazol-6-yloxy)pyridin-2-yl)acetamide] | 81 | 86 | 72 | 75 | 0 | 66 | 72 | 74 | 99 | 95 | 100 | 16 | 100 | 89 | 100 | 11 | 100 | 61 | 99 | 0 | remaining binding at 1 µM [21]: 90%; remaining binding at 1 µM [22]: 74%; remaining binding at 1 µM [23]: 66%; remaining binding at 1 µM [24]: 99%; remaining binding at 1 µM [25]: 94%; remaining binding at 1 µM [26]: 61%; remaining binding at 1 µM [27]: 100%; remaining binding at 1 µM [28]: 83%; remaining binding at 1 µM [29]: 100%; remaining binding at 1 µM [30]: 86%; remaining binding at 1 µM [31]: 34%; remaining binding at 1 µM [32]: 100%; remaining binding at 1 µM [33]: 0%; remaining binding at 1 µM [34]: 100%; remaining binding at 1 µM [35]: 0.45%; remaining binding at 1 µM [36]: 98%; remaining binding at 1 µM [37]: 29%; remaining binding at 1 µM [38]: 82%; remaining binding at 1 µM [39]: 100%; remaining binding at 1 µM [40]: 91%
